In experiment [1] the target is T1, Nitric oxide synthase 1 (Homo sapiens, UniProt P29475).
Description: Inhibition of recombinant human nNOS
Experiment [2] concerns the target T1, Nitric oxide synthase 1. This is another data set of the same source.
Description: Inhibition of recombinant human nNOS
Experiment [3] relates to HepG2. Description: cells. To be noted: Homo sapiens, HepG2, 24 h.
Description: Cytotoxicity against human HepG2 cells assessed as reduction in cell viability measured after 24 hrs by MTT assay
Experiment [4] has as its target T2, Acetylcholinesterase (Homo sapiens, UniProt P22303). In words: Non competitive type inhibition of human AChE assessed as inhibition constant using varying levels of acetylthiocholine as substrate by double reciprocal Lineweaver-Burk plot analysis.
The target in experiment [5] is T2, Acetylcholinesterase.
Description: Inhibition of recombinant human AChE using acetylthiocholine as substrate by DTNB-reagent based Ellman's method
The target of experiment [6] is Cholinesterase (Homo sapiens, UniProt P06276).
Chain of Cholinesterase (P06276 whole entry): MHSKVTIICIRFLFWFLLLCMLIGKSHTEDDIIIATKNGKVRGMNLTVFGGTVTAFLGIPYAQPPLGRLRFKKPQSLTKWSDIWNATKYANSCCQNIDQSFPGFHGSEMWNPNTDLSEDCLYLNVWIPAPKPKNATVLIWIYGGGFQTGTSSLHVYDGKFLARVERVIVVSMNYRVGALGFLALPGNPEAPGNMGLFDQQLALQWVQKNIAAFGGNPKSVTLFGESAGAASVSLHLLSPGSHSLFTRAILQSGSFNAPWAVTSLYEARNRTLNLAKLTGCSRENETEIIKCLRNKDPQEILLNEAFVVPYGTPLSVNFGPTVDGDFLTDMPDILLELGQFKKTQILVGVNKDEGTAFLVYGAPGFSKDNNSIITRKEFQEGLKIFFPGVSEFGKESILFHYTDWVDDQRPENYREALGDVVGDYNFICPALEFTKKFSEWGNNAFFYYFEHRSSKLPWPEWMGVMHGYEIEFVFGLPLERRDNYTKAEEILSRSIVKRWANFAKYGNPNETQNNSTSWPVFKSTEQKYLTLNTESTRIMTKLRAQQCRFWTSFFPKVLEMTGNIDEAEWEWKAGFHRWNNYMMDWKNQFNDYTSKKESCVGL
Description: Inhibition of recombinant human BuChE using butyrylthiocholine as substrate by Ellman's method

T2 sequence (P22303 whole entry): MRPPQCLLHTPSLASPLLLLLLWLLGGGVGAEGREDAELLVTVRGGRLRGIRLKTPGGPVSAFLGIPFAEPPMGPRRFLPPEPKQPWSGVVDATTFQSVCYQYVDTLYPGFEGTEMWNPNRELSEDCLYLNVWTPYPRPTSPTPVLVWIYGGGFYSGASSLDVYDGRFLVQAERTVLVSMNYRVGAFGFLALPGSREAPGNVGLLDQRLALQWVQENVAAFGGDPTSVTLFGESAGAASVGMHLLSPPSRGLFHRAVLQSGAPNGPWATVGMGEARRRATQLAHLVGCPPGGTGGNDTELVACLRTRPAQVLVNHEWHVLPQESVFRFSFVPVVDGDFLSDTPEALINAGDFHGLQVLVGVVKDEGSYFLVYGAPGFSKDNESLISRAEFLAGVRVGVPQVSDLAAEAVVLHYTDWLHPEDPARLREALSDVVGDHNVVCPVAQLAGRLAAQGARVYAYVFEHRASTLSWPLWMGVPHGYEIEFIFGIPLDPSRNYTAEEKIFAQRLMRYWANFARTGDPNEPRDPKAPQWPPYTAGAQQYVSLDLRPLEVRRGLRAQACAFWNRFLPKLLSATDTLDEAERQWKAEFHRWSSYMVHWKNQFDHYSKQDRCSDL
T1 sequence (P29475 whole entry): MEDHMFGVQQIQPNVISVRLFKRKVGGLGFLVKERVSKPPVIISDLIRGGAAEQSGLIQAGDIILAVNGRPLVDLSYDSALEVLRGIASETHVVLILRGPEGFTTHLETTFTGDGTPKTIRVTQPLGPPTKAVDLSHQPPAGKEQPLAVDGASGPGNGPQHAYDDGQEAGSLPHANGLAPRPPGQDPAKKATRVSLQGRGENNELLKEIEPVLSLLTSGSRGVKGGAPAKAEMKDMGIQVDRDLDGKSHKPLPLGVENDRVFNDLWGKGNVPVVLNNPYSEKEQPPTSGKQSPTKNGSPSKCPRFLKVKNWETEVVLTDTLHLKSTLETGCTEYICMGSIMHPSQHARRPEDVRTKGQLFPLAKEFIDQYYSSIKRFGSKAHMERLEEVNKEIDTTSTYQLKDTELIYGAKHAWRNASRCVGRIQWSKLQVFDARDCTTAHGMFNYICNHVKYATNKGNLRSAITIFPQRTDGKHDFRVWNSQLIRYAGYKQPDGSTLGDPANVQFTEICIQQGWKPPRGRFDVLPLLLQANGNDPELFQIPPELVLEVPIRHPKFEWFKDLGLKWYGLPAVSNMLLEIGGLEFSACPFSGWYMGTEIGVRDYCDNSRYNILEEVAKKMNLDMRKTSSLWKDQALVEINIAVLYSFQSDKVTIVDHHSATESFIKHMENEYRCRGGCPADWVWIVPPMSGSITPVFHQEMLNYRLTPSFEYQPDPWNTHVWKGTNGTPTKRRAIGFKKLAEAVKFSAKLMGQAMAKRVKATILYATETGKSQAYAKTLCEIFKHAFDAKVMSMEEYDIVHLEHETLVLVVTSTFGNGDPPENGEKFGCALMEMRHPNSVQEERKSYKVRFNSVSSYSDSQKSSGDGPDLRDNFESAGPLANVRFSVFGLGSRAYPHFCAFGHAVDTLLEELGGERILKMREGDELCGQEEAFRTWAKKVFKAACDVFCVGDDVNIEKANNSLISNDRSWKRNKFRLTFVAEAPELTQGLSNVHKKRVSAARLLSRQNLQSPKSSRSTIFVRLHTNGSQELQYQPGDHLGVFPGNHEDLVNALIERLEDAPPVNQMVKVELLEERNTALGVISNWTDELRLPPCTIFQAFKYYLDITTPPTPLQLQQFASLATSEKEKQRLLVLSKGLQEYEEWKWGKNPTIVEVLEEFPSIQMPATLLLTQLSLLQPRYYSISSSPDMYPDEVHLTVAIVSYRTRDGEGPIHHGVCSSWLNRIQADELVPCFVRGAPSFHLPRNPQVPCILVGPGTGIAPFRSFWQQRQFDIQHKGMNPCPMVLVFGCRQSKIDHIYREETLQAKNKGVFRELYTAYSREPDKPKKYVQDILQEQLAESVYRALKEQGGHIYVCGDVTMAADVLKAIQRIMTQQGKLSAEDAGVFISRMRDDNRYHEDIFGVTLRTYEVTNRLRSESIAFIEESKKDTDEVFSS

Consider `N[C@@H](Cc1c[nH]c2ccccc12)C(=O)NCCCCCCNc1c2c(nc3cc(Cl)ccc13)CCCC2`, for which, in experiment [1], the IC50 (in general, the midpoint of a concentration-inhibition curve) amounted to 26 µM.
On to `Nc1c2c(nc3cc(Cl)ccc13)CCCC2`, for which the IC50 result in experiment [2] is “Not Active”.
Same read-out and setting: for `COc1ccc2nc3c(c(N)c2c1)CCCC3` the value was “Not Active”.
As for `CC1=CC2Cc3nc4cc(Cl)ccc4c(N)c3C(C1)C2` (racemic), in experiment [3], inhibition was half-maximal at 15.9 µM (IC50).
`CC1=CC2Cc3nc4cc(Cl)ccc4c(NCCCCCCNC(=O)[C@@H](N)Cc4c[nH]c5ccccc45)c3C(C1)C2` (some centres undefined): in experiment [4], the Ki (usually a dissociation constant, usually derived from enzyme kinetics or from competition with a known ligand) came to 0.023 µM. Also, the IC50 in experiment [5] was found to be 0.0117 µM; in experiment [6], 0.0457 µM; in experiment [1], 18.5 µM; in experiment [3] it was 5.63 µM.
Turning to `CC1=CC2Cc3nc4cc(Cl)ccc4c(NCCCCCCCNC(=O)[C@@H](N)Cc4c[nH]c5ccccc45)c3C(C1)C2` (some centres undefined), the IC50 in experiment [5] was found to be 0.0121 µM; in experiment [6] it was 0.0845 µM; in experiment [1], 35 µM; in experiment [3] it was 12.3 µM.
In the same order, the values of `CC1=CC2Cc3nc4cc(Cl)ccc4c(NCCCCCNC(=O)[C@@H](N)Cc4c[nH]c5ccccc45)c3C(C1)C2` (some centres undefined) are 0.0227 µM, 0.0683 µM, 24 µM and 4.77 µM.
For `COc1ccc2nc3c(c(N)c2c1)C1CC(C)=CC(C3)C1` (racemic), the IC50 in experiment [1] came out at 32 µM; in experiment [3], 14.9 µM.

Source of the values: ChEMBL document CHEMBL4819137, “Huprine Y - Tryptophan heterodimers with potential implication to Alzheimer's disease treatment” (Bioorg Med Chem Lett, 2021).
